In brackets after ≈: the same amount, converted by molar mass. Read-outs that look alike come from different tables or passages of the source.

The nature of data set [1]: Moisture sorption analysis (DVS). Type of data set: physicochemical. Conditions: for hygroscopicity by DVS isotherm / moisture uptake (DVS): 25° C. As for the experimental part:
Moisture Sorption Analysis-Moisture sorption isotherm was determined using a DVS Endeavour at 25° C. in an aluminum pan with water as the solvent (closed loop) and nitrogen gas flow at 200 sccm. The sample was analyzed from 40% to 0% to 90% to 0% to 90% to 0% to 40% RH in 5% RH steps.

The nature of data set [2]: Moisture sorption analysis (DVS). The format is physicochemical. Conditions: for moisture uptake (DVS): 25° C.
Data set [3] in a line: Single dose dog PK, Form 1E compared to Compound A free base. Type of data set: in vivo, dogs. The note with it: FIG. 5C. As for the experimental part:
The pharmacokinetic (PK) properties of Form 1E was evaluated in dogs.

Data set [4] in a line: PK properties of Form 1E in male dogs under fasted and fed conditions. Type of data set: in vivo. The note with it: for AUC(0-inf) / AUC(0-t) / CL/F / Cmax / MRT / Tmax / half-life: male, dog, plasma, po; for half-life: read-out: t1/2, z (converted).
Data set [5] in a line: Comparative solubilities of Form 1 and Form 1E in biorelevant media. The format is physicochemical. The note with it: for solubility: read-out: Solubility Conc.
A short description of data set [6]: Physical and chemical stability of Form 1E. The format is physicochemical.
The mark [7] stands for this setting: 30 mg/kg, pH 2, male dogs, Study A, 30.0 mg/kg p.o., Vehicle 1 (water/malonic acid pH 2.0), Fasted.
[8] abbreviates: 30 mg/kg, pH 2, male dogs, Study A, 30.0 mg/kg p.o., Vehicle 1 (water/malonic acid pH 2.0), Fed (kibble).
The mark [9] stands for this setting: 50 mg/kg, pH 7, male dogs, Study B, Vehicle 2 (water/MSA pH7.0), Fasted.
Setting [10] is: 50 mg/kg, pH 7, male dogs, Study B, Vehicle 2 (water/MSA pH7.0), Fed (high fat).

Consider `O=C1OCCCc2c(Cl)cc3[nH]ncc3c2-c2ncc3c(nc(OC[C@@]45CCCN4C[C@H](F)C5)nc3c2F)N2CCOC[C@H](C2)O1` [Form 1A], for which, in data set [1], the “hygroscopicity by DVS isotherm” value was “hygroscopic”. The “moisture uptake (DVS)” value in data set [2] (at 95% relative humidity) worked out at 5.4 wt. %.
Turning to `O=C1OCCCc2c(Cl)cc3[nH]ncc3c2-c2ncc3c(nc(OC[C@@]45CCCN4C[C@H](F)C5)nc3c2F)N2CCOC[C@H](C2)O1` [Form 1B], the “hygroscopicity by DVS isotherm” value in data set [1] is “hygroscopic”. In data set [2] (at 95% relative humidity), the “moisture uptake (DVS)” value is 4.7 wt. %.
Turning to `O=C1OCCCc2c(Cl)cc3[nH]ncc3c2-c2ncc3c(nc(OC[C@@]45CCCN4C[C@H](F)C5)nc3c2F)N2CCOC[C@H](C2)O1` [Form 1E], the “improvement in plasma concentration compared to Compound A free base” value in data set [3] is reported as about 2 ×. The “plasma exposure (Cmax and AUC), fed versus fasted conditions” value in data set [4] (dogs, FIGS. 5D and 5E, kibble or high fat diet) was “did not show a difference”. The emesis entry in data set [4] (dogs, prior studies, 50 mg/kg and a high fat diet) is “suffered from emesis”. In addition, the total exposure AUC(0-inf) – broadly, total exposure, with the tail of the curve extrapolated – in data set [4] (setting [7]) stood at 14.2 µM·h; in data set [4] (setting [8]), 17 µM·h; in data set [4] (setting [9]), 3.54 µM·h; in data set [4] (setting [10]), 3.91 µM·h. The AUC(0-t) (commonly exposure summed from dosing to a finite time, without extrapolation to infinity) in data set [4] (setting [7]) was determined as 14.1 µM·h; in data set [4] (setting [8]), 17 µM·h; in data set [4] (setting [9]), 3.53 µM·h; in data set [4] (setting [10]), 3.89 µM·h. Also, the apparent clearance CL/F (commonly clearance divided by bioavailability, as obtained after extravascular dosing) in data set [4] (setting [7]) is 73.5 mL/min/kg; in data set [4] (setting [8]), 55.8 mL/min/kg; in data set [4] (setting [9]), 783 mL/min/kg; in data set [4] (setting [10]), 1160 mL/min/kg. Besides, the maximum concentration (Cmax) (as a rule, the maximum level reached in the sampled fluid or tissue) in data set [4] (setting [7]) was 5820 nM; in data set [4] (setting [8]), 4290 nM; in data set [4] (setting [9]), 1350 nM; in data set [4] (setting [10]) it was 1050 nM. The mean residence time (MRT) (as a rule, a mean duration of stay, worked out from the concentration-time curve) in data set [4] (setting [7]) was determined as 3.16 h; in data set [4] (setting [8]), 4.14 h; in data set [4] (setting [9]), 3.79 h; in data set [4] (setting [10]) it was 4.26 h. Moreover, the Tmax (commonly the time at which the peak concentration occurs) worked out at 0.312 h in data set [4] (setting [7]), 1.62 h in data set [4] (setting [8]), 0.9 h in data set [4] (setting [9]) and 1.5 h in data set [4] (setting [10]). Moreover, the half-life in data set [4] (setting [7]) is 2.67 h; in data set [4] (setting [8]), 2.96 h; in data set [4] (50 mg/kg, pH 7, male dogs, Study B, 50.0 mg/kg, Vehicle 2 (water/MSA pH7.0), Fasted), 3.47 h; in data set [4] (50 mg/kg, pH 7, male dogs, Study B, 50.0 mg/kg, Vehicle 2 (water/MSA pH7.0), Fed (high fat)) it was 4.83 h. For the same compound, the solubility (in general, how much of the substance goes into solution per volume) in data set [5] (FaSSGF, pH 1.99, fassgf or other biorelevant) stood at 5990 µg/mL (≈ 9130 µM); in data set [5] (FaSSIF, pH 4.86, fassif) it was 1730 µg/mL (≈ 2640 µM); in data set [5] (FeSSIF, pH 4.58, fessif) it was 2500 µg/mL (≈ 3810 µM); in data set [5] (PBS, pH 4.55, aqueous buffer), 1300 µg/mL (≈ 1980 µM); in data set [5] (water, H2O, pH 3.93), 7760 µg/mL (≈ 11800 µM). In data set [5] (several media, compared with Form 1), the “solubility in several media relative to Form 1” value is “higher solubility”. Further, the Equilibrium crystal form entry in data set [5] (solubility sample in FaSSGF), in data set [5] (solubility sample in FaSSIF), in data set [5] (solubility sample in FeSSIF), in data set [5] (solubility sample in H2O) and in data set [5] (solubility sample in PBS) was “Form 1E” in each case. The “hygroscopicity by DVS isotherm” value in data set [1] is given as “non-hygroscopic”. The “moisture uptake (DVS)” value in data set [1] (at 90% relative humidity) came out at 0.6 wt. %. Also, the “hygroscopicity compared to all other forms” value in data set [1] (compared to all other solid forms of Compound A) is reported as “lowest hygroscopicity”. Also, in data set [6] (accelerated conditions), the physical stability entry is reported as “physically stable”. For the same compound, in data set [6] (at 5° C.), the “chemically stable for” value is “more than 2 years”.
In the case of `O=C1OCCCc2c(Cl)cc3[nH]ncc3c2-c2ncc3c(nc(OC[C@@]45CCCN4C[C@H](F)C5)nc3c2F)N2CCOC[C@H](C2)O1` [Form 1], the solubility in data set [5] (FaSSGF, pH 2.06, fassgf or other biorelevant) came out at 4420 µg/mL (≈ 6740 µM); in data set [5] (FaSSIF, pH 7.15, fassif), 35 µg/mL (≈ 53.3 µM); in data set [5] (FeSSIF, pH 5.51, fessif) it was 560 µg/mL (≈ 854 µM); in data set [5] (PBS, pH 7.04, aqueous buffer), 10 µg/mL (≈ 15.2 µM); in data set [5] (water, H2O, pH 8.73), 0.3 µg/mL (≈ 0.457 µM). The Equilibrium crystal form entry in data set [5] (solubility sample in FaSSGF), in data set [5] (solubility sample in FaSSIF), in data set [5] (solubility sample in FeSSIF), in data set [5] (solubility sample in H2O) and in data set [5] (solubility sample in PBS) was “Form 1” each time.
As to `O=C1OCCCc2c(Cl)cc3[nH]ncc3c2-c2ncc3c(nc(OC[C@@]45CCCN4C[C@H](F)C5)nc3c2F)N2CCOC[C@H](C2)O1` [Form A1-A], in data set [2] (judged from TGA and XRPD, no DVS reported), the “hygroscopicity as per TGA and XRPD analysis” value was “hygroscopic”.
Turning to `O=C1OCCCc2c(Cl)cc3[nH]ncc3c2-c2ncc3c(nc(OC[C@@]45CCCN4C[C@H](F)C5)nc3c2F)N2CCOC[C@H](C2)O1` [Form C1], in data set [1], the “hygroscopicity by DVS isotherm” value was “hygroscopic”. Besides, in data set [1] (at 85% relative humidity), the “moisture uptake (DVS)” value turned out to be 4.0 wt. %. Also, in data set [2] (at 95% relative humidity), the “behaviour in DVS at 95% relative humidity” value is recorded as “deliquescence”.
`O=C1OCCCc2c(Cl)cc3[nH]ncc3c2-c2ncc3c(nc(OC[C@@]45CCCN4C[C@H](F)C5)nc3c2F)N2CCOC[C@H](C2)O1` [Form C-P]: in data set [1], the “hygroscopicity by DVS isotherm” value is “hygroscopic”. For the same compound, the “moisture uptake (DVS)” value in data set [1] (at 80% RH) is given as 3.08 wt. %.

Source of the values: patent US20260184727A1, “SOLID FORMS OF MACROCYCLIC COMPOUNDS AND USES THEREOF” (AMGEN INC., priority 2024, published 2026).
